The values below come from patent publication US20130252930A1 (BIOMARIN PHARMACEUTICAL INC., priority 2010, published 2013).

SMILES strings stand for the structures. Like-named read-outs stand apart in the source and are kept apart here. Some results are limits rather than exact numbers.

Data set [1] deals with T1, CYP17 (human testicular microsome) (Homo sapiens, UniProt P05093).
T1 construct: using microsomal fraction from human testis (Celsis Cat #S00110) as the enzyme source; tissue Celsis S00110; host or cells: human testis microsomal fraction
T1 sequence (P05093 1-508): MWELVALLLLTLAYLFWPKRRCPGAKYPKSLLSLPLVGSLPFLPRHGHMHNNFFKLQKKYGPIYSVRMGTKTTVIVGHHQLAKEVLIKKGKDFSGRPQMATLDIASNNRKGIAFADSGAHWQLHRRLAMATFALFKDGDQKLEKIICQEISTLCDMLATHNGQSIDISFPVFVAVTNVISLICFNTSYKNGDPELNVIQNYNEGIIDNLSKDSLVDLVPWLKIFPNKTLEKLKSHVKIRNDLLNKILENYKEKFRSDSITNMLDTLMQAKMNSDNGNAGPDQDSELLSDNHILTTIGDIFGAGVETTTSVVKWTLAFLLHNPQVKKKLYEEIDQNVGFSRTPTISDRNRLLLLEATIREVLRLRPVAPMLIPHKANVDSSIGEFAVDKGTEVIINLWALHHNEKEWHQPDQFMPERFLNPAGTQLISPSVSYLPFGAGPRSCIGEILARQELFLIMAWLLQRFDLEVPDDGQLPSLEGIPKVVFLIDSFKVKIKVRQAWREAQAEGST
The experiment in a line: CYP17 enzymatic assay (IC50) (Biological Example 4). The following applies: human testicular microsome. It counts as biochemical.

For data set [2], the target named is T1, CYP17 (human testicular microsome). The data set can be described thus: CYP17 enzymatic assay (% inhibition at 10 nM), version 1 (Biological Example 5). It counts as biochemical. The following applies: 10 nM compound, DHEA by ELISA, read-out: Biological Example No. 5: CYP17 percent inhibition at 10 nM (version 1). On the technique in general: An ELISA detects its analyte on a solid surface through an enzyme-linked reagent.
Protocol: The assays were performed in 96-well plates. Typical assays were carried out in total 100 μL volume that included test compounds at 10 nM concentration, 1× reaction buffer, 0.5 mM NADPH, 1 μM 17α-hydroxypregnenolone, and 2.5 μL of diluted human testicular microsome (Celsis. Cat #S00110). Reaction without test compound served as positive control. Reactions were allowed to incubate at 37° C. for 90 minutes with gentle shaking. The reaction was stopped by directly applying the enzymatic reaction mixture to ELISA plate for evaluation of DHEA concentration according to manufacturer's protocol (IBL America). A standard curve (OD450 vs. DHEA concentration) was generated using purified DHEA. […] Percent inhibition (inhibition %) of the compound was calculated using normalized DHEA concentration based on following formula: 100-([DHEA] of compound/[DHEA] of positive control *100).

In data set [3] the target is T2, CYP17 (H295R cells) (Homo sapiens, UniProt P05093).
T2 construct: endogenous in cells; host or cells: H295R cells
T2 sequence (P05093 1-508): T1 sequence (P05093 1-508)
The data set can be described thus: CYP17 cellular assay (IC50), testosterone in H295R cells (Biological Example 7). The data set is classed as cell-based. The following applies: H295R cells. In a few lines: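 H295R cells cultured 24 h, then exposed to compound at 100, 10, 1, 0.1 nM final in serum-free DMEM/F-12 with ITS+ and 0.1% methanol for 24 h at 37 °C. Medium testosterone measured by ELISA and plotted against compound concentration.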

For data set [4], the system named is rat Cyp11B enzyme (rat adrenal mitochondria). The experiment in a line: CYP11B enzymatic assay (% inhibition at 100 nM) (Biological Example 9). The data set is classed as biochemical. The following applies: for CYP11B enzymatic assay % inhibition at 100 nM (Biological Example No. 9): compound at 100 nM. As to the method:
Adrenals excised from Sprague Dawley rats were homogenized, and mitochondria fraction were prepared by a series of centrifugation as described in Shuji Ohno, et al. J. of Steroid Biochemistry & Molecular Biology 2002, 80, 355-363. Prepared mitochondria protein was washed and resuspended in Buffer B (0.21 M mannitol, 70 mM sucrose, 5 mM MgCl2, 0.5 mM CaCl2, 20 mM Tris-HCl (pH 7.4) and 1 mM DTT, […]). The protein concentration was determined by BCA assay and stored as 10 μL aliquots at −80° C.
The rat Cyp11B enzyme assay was performed in 96-well plates. Typical assays were carried out in total 50 μL volume that included test compounds at 100 nM concentration, 1× Buffer B, 0.5 mM NADPH, 0.1 μM 11-deoxycortisol, and 2 μL of prepared rat adrenal mitochondria (added last). Reaction without test compound served as positive control and reaction without NADPH served as negative control. Reactions were allowed to incubate at 37° C. for 60 min with gentle shaking. The reaction was stopped by directly applying the enzymatic reaction mixture (1:5 diluted in ELISA assay buffer) to ELISA plate for evaluation of cortisol concentration according to manufacturer's protocol (Assay Design).
The mean absorbance value for each sample was used to determine the corresponding concentration from the standard curve. Amount of cortisol in the negative control (reaction that dis not include NADPH) was subtracted from total cortisol. Percent inhibition (inhibition %) of the compound was calculated using normalized cortisol concentration based on following formula: 100−([Cortisol] of compound/[Cortisol] of positive control *100).

Data set [5] concerns the target T1, CYP17 (human testicular microsome). The experiment in a line: CYP17 enzymatic assay (% inhibition at 1 nM) (Biological Example 12). It counts as biochemical.
A short description of data set [6]: Human liver microsome stability assay (Biological Example 8b). The following applies: liver microsomes, pH 7.4. (Liver microsomes are a subcellular fraction often used to study metabolism.)
Protocol: The reaction was started with addition of excess NADPH (5 mg/mL, 15 μL in 0.1 M potassium phosphate buffer, 1.0 mM EDTA, pH 7.4), the total volume is 45 μL (compound final concentration was 1 μM). […] 50 μL of the supernatant was transferred from each well into a 96-well sample plate containing 50 μL of ultra-pure water (Millipore) for LC-MS/MS analysis.
For data set [7], the target named is T3, Cyp21 enzyme (Human HEK 293-Cyp21 stable transfected cells) (Homo sapiens, UniProt P08686).
T3 construct: expressed in transfected cells
T3 sequence (P08686 1-495): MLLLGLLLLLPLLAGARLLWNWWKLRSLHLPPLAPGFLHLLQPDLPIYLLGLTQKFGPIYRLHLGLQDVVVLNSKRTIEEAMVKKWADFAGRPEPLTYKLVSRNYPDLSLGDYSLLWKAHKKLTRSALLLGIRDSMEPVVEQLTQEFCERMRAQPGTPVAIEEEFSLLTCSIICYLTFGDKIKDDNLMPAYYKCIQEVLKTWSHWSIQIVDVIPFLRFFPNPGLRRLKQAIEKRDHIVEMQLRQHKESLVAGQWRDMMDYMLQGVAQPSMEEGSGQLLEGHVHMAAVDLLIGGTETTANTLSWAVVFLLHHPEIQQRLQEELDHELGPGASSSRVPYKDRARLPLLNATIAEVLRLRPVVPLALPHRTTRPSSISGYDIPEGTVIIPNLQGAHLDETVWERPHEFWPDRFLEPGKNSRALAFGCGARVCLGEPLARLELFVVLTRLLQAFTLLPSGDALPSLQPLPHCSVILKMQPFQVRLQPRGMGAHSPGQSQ
The experiment in a line: CYP21-HEK293 enzymatic assay (IC50) (Biological Example 11). It counts as cell-based. The following applies: HEK 293-Cyp21 cells; read-out: CYP21-HEK293 enzymatic assay IC50 (Biological Example No. 11).

Where [8] appears, read: read-out: CYP17 enzymatic assay IC50 (Biological Example No. 4).
Where [9] appears, read: compound at 1 nM, read-out: CYP17 enzymatic assay % inhibition at 1 nM (Biological Example No. 12).

The term IC50 denotes the concentration needed to halve the response being measured. What is called inhibition is the percentage by which the read-out fell short of the control. What is called half-life is the time needed for the level to fall by half in the phase considered. As for `C[C@]12CC[C@H](O)CC1=CC[C@@H]1[C@@H]2CC[C@]2(C)C(c3cccnc3)=CC[C@@H]12` [C, (3S,8R,9S,10R,13S,14S)-10,13-dimethyl-17-(pyridin-3-yl)-2,3,4,7,8,9,10,11,12,13,14,15-dodecahydro-1H-cyclopenta[a]phenanthren-3-ol, reference compound], the IC50 in data set [1] (DHEA by ELISA, read-out: Biological Example No. 4: CYP17 enzymatic assay IC50) is < 11 nM; in data set [3] (testosterone by ELISA, 24 hours, read-out: Biological Example No. 7: CYP17 cellular assay IC50), < 15 nM. In addition, the inhibition at 0.01 µM in data set [2] was > 80%. Also, the “Biological Example No. 9: CYP11B percent inhibition at 100 nM” value in data set [4] (100 nM compound, cortisol by ELISA) is reported as “T (T means the compound had a percent inhibition of less than 32% when tested at 100 nM)”. The inhibition at 0.001 µM in data set [5] (1 nM compound, DHEA by ELISA, read-out: Biological Example No. 12: CYP17 percent inhibition at 1 nM) is > 50%. This compound also came in with a half-life at 1 μM in data set [6] of 1 to 50 min.
With `CCCC(=O)N1CCC2CC[C@@H]3[C@H](CC[C@]4(C)C(n5ccnc5)=CC[C@@H]34)[C@@]2(C)CC1` (stereo partly drawn) [Compound 434, 1-((5aS,7aS)-8-(1H-imidazol-1-yl)-5a,7a-dimethyl-1,2,5,5a,5b,6,7,7a,10,10a,10b,11,12,12a-tetradecahydrocyclopenta[5,6]naphtho[1,2-d]azepin-3(4H)-yl)butan-1-one], the IC50 was < 11 nM in data set [1] (setting [8]) and > 1000 nM in data set [7]. Moreover, the “CYP11B enzymatic assay % inhibition at 100 nM (Biological Example No. 9)” value in data set [4] was “T (T means the compound had a percent inhibition of less than 32% when tested at 100 nM)”. Also, the inhibition at 0.001 µM in data set [5] (setting [9]) was > 50%.
The corresponding values for `CCC(=O)N1CCC[C@@]2(C)C(CCC3C2CC[C@]2(C)C(c4cccnc4)=CCC32)C1` (stereo partly drawn) [Compound 435, 1-((5aR,7aS)-5a,7a-dimethyl-8-(pyridin-3-yl)-3,4,5,5a,5b,6,7,7a,10,10a,10b,11,12,12a-tetradecahydrocyclopenta[5,6]naphtho[2,1-c]azepin-2(1H)-yl)propan-1-one] are < 11 nM, > 1000 nM, “U (U means the compound had a percent inhibition of greater than or equal to 32%)” and 10 to 50%.
For the compound `CCC(=O)N1CCC2CCC3C(CC[C@]4(C)C(c5cccnc5)=CCC34)[C@@]2(C)CC1` (stereo partly drawn) [Compound 436, 1-((5aS,7aS)-5a,7a-dimethyl-8-(pyridin-3-yl)-1,2,5,5a,5b,6,7,7a,10,10a,10b,11,12,12a-tetradecahydrocyclopenta[5,6]naphtho[1,2-d]azepin-3(4H)-yl)propan-1-one], the IC50 in data set [1] (setting [8]) was < 11 nM; in data set [7], > 1000 nM. In addition, in data set [4], the “CYP11B enzymatic assay % inhibition at 100 nM (Biological Example No. 9)” value is recorded as “T (T means the compound had a percent inhibition of less than 32% when tested at 100 nM)”. The inhibition at 0.001 µM in data set [5] (setting [9]) was in the range of 10 to 50%.
For `CCC(=O)N1CCC[C@@]2(C)[C@@H](CC[C@@H]3[C@@H]2CC[C@]2(C)C(n4ccnc4)=CC[C@@H]32)C1` [Compound 441, 1-((5aR,5bS,7aS,10aS,10bR,12aR)-8-(1H-imidazol-1-yl)-5a,7a-dimethyl-3,4,5,5a,5b,6,7,7a,10,10a,10b,11,12,12a-tetradecahydrocyclopenta[5,6]naphtho[2,1-c]azepin-2(1H)-yl)propan-1-one], the IC50 in data set [1] (setting [8]) is < 11 nM; in data set [7], 10 to 100 nM. The “CYP11B enzymatic assay % inhibition at 100 nM (Biological Example No. 9)” value in data set [4] is recorded as “U (U means the compound had a percent inhibition of greater than or equal to 32%)”. Moreover, the inhibition at 0.001 µM in data set [5] (setting [9]) lay in the range of 10 to 50%.
On to `COC(=O)N1CCC[C@@]2(C)[C@@H](CC[C@@H]3[C@@H]2CC[C@]2(C)C(n4ccnc4)=CC[C@@H]32)C1` [Compound 442, (5aR,5bS,7aS,10aS,10bR,12aR)-methyl 8-(1H-imidazol-1-yl)-5a,7a-dimethyl-3,4,5,5a,5b,6,7,7a,10,10a,10b,11,12,12a-tetradecahydrocyclopenta[5,6]naphtho[2,1-c]azepine-2(1H)-carboxylate], for which the “CYP11B enzymatic assay % inhibition at 100 nM (Biological Example No. 9)” value in data set [4] is listed as “U (U means the compound had a percent inhibition of greater than or equal to 32%)”. For the same compound, the IC50 in data set [7] was > 100 nM. Besides, the inhibition at 0.001 µM in data set [5] (setting [9]) lay within 10 to 50%.
With `Cc1ccncc1C1=CCC2C3CN(C)C4=CC(=O)CC[C@]4(C)C3CC[C@]12C` (stereo partly drawn) [Compound 444, (9aR,11aS)-5,9a,11a-trimethyl-1-(4-methylpyridin-3-yl)-3b,4,5,8,9,9a,9b,10,11,11a-decahydro-3H-cyclopenta[i]phenanthridin-7(3aH)-one], the IC50 in data set [3] (testosterone, read-out: CYP17 cellular assay IC50 (Biological Example No. 7)) is < 15 nM. For the same compound, the “CYP11B enzymatic assay % inhibition at 100 nM (Biological Example No. 9)” value in data set [4] was “U (U means the compound had a percent inhibition of greater than or equal to 32%)”. Further, the inhibition at 0.001 µM in data set [5] (setting [9]) lay within 10 to 50%.
